These results are taken from US5543147A, “Crystalline modification of 2,4-dioxo-6-methyl-1,2,3,4-tetrahydropyrimidine, a method for the preparation thereof and a medicinal preparation based on it” (Leonidov; Nikolai B., priority 1994, dated 1996).

Like-named read-outs stand apart in the source and are kept apart here.

One data set can be described thus: subacute toxicity. In kind it is in vivo, random-bred white mice, rats, and chinchilla rabbits. The following applies: subacute routes of inoculation. As to the method:
(§1) Trials of the toxicity of the claimed crystalline modification of the said compound were carried out comparing it with the known crystalline form of the said compound.
(§2) Investigations of the general toxic effect of the claimed crystalline modification of 2,4-dioxo-6-methyl-1,2,3,4-tetrahydropyrimidine and the known crystalline form of the said compound were carried out in 3 […] species (random-bred white mice, rats, and chinchilla rabbits).

A further data set can be described thus: acute toxicity. In kind it is in vivo, random-bred white mice, rats, and chinchilla rabbits. On the procedure: as §1, §2
A short description of data set [1]: rate of dissolution of the active substance (rotary basket). It counts as physicochemical. The conditions noted are these: water for injections 1000 ml, 37±1° C, 50 rpm, 0.25 g, 0 to 45 min. As to the method: The rate of dissolution of the active substance is determined in a "rotary basket" type DT-D6 apparatus (Erweka Co, BRD) at a mixing rate of 50 rpm. The dissolving medium is water for injections in a volume of 1000 ml at a temperature of 37±1° C. The content of the active substance in the solution is determined spectrophotometrically in a spectrophotometr No. 75 (Perkin-Elmer Co) at a wave length of 259 nm. For comparison, the known crystalline form of the said compound is used under identical conditions. The parameter for comparison is the constant of dissolution rate based on the mean results of the compound transition into solution from the amount thereof used (0.25 g) in the time of 0 to 45 min. The water for injections is used as a control.

For a further data set, the system named is plane multilayer wounds. The data set is described as follows: wound-healing activity, plane multilayer wounds in rats. The conditions noted are these: for Rate of healing at 7 days / Rate of healing at 10 days / Rate of healing at 15 days / Mean time of falling off of crusts / Mean time of healing / Speeding up of healing: claimed 0.25% solution, known 1% solution in 0.9% aqueous NaCl. In kind it is in vivo, random-bred white male rats. On the procedure:
(§3) The tests were carried out in 2 groups of 41 random-bred white male rats weighing 200±10 g. The experimental model in the 1st group were linear wounds of 50 mm long inflicted on the backs of the rats. Depending on the crystalline form of the tested compound used the rats were divided into 3 series. The first series was control--the wounds were pricked once daily with 0.9% aqueous solution of sodium chloride (0.5 ml) for 3 days. In the 2nd series the wounds were pricked by the same method with 1% solution of the known crystalline form of the said compound in 0.9% aqueous solution of sodium chloride. In the 3rd series the wounds were pricked by the same method with 0.25% solution of the claimed compound in 0.9% aqueous solution of sodium chloride.
Plane multilayer wounds of 400 mm^2 in area inflicted on the backs of rats were an experimental model in the 2nd group of experiments. The animals were also divided into 3 series. Here, the pricking of the wound was done by the same schedule as in the 1st group. The parameters of the wound process in the time course at 7, 10 and 15 days after wound inflicting were assessed by the methods of tensiometry, planimetry and clinical observations. The time of falling off of crusts and complete healing of the wounds was determined. The rate of the wound area decrease (V) in the course of healing was calculated by the formula [formula] wherein So is the initial wound area, mm^2,
St the wound area on the day of measurement t, mm^2.
(§4) The results of trials of the wound-healing activity of the claimed and the known crystalline forms of the said compound were statistically treated with the confidence limit of 95%.

Another data set has as its system wounds. Put plainly: preliminary experiments on the wound-healing effect. It counts as in vivo.
The next data set relates to linear wounds. The data set is described as follows: wound-healing activity, model of linear wounds in rats (scar strength). It counts as in vivo, random-bred white male rats. The following applies: for Strength of the scar: wounds pricked once daily for 3 days; for Strength of the scar / Increase of the scar strength as compared with control: claimed 0.25% solution, known 1% solution in 0.9% aqueous NaCl. On the procedure: as §3, §4

The next data set concerns eyes. The data set is described as follows: safety of long-term subconjunctival inoculations (2-month toxicological experiment). In kind it is in vivo, white rats and chinchilla rabbits. As to the method:
The study on the safety of long-term subconjunctival inoculations of the claimed modification in comparison with the known form of the said compound was carried out in a 2-month-long toxicological experiment in 148 mature male and female white rats and 49 male and female chinchilla rabbits.
Male rats and rabbits were given subconjunctivally I drop each of 2%, 25% and 50% suspension of the claimed modification of the said compound into each eye once daily. The results obtained were compared with those in a group of male rats and rabbits given one drop of 2% suspension of the known form of the said compound into the eye. Besides, a 2% suspension of the claimed modification of the said compound was given to a group of female rats and rabbits which were compared with the control group. In a separate series of experiments in the same animals (rats, rabbits) carried out by the same schedule of a chronic experiment, the effect of the claimed pharmaceutical in the form of an eye ointment containing as the active substance the claimed modification of the said compound was determined. The results of this study confirm the data obtained in the studies of the effect of the claimed compound. Comparisons with the pharmaceutical containing the known form of the said compound gave analogous results.

The test system of data set [2] is allergenic and immunotoxic properties. Put plainly: studies of the allergenic and immunotoxic properties.
Data set [3] is described as follows: solubility of the crystalline powder. In kind it is physicochemical.
For data set [4] the following is noted: prior-art description, cited from earlier work.

On to `Cc1cc(O)nc(O)n1` [claimed modification, 2,4-dioxo-6-methyl-1,2,3,4-tetrahydropyrimidine], for which the cumulative effect entry in the data set “subacute toxicity” is listed as “weak”. For the same molecule, the “class of toxicity (acute toxicity)” value in “acute toxicity” was “Vth class of toxicity (practically non-toxic compounds)”. Also, in “acute toxicity” (intraperitoneal), the “class of toxicity (acute toxicity, intraperitoneal route)” value was “VI class of relatively harmless compounds”. Moreover, in “acute toxicity” (subconjunctival route), the mean lethal dose result is recorded as “could not be established”. Also, the “constant of the dissolution rate K” value in data set [1] turned out to be 0.025 min⁻¹. In addition, in the data set on plane multilayer wounds, the “shortening of time of complete healing of plane wounds as compared with the control” value is recorded as 26.2%, the “Rate of healing at 7 days” value came out at 61.6 ± 6.3%, the “Rate of healing at 10 days” value worked out at 89.0 ± 4.9% and the “Rate of healing at 15 days” value is given as 95.4 ± 3.8%. In addition, in the data set with plane multilayer wounds, the “Mean time of falling off of crusts” value came to 8.6 ± 0.7 days, the “Mean time of healing” value turned out to be 17.7 ± 1.6 days and the “Speeding up of healing” value is 26.2%. For the same molecule, in the data set on plane multilayer wounds (0.25% vs 1% solution), the “shortening of time of complete healing of plane wounds as compared with the known form of the compound” value worked out at 12%. The “concentration of solution at which significant (comparable) wound-healing effect was manifested” value in the data set on wounds stood at 0.25 % by weight. Moreover, in the data set with linear wounds (7 days), the “increase of rupture strength of linear wounds as compared with the control” value is given as 90.4% and the “Strength of the scar” value was found to be 57.3 ± 9.0 g/mm^2. For the same molecule, the “increase of rupture strength of linear wounds as compared with the known form of the compound” value in the data set on linear wounds (7 days, 0.25% vs 1% solution) worked out at 43%. For the same molecule, the “Increase of the scar strength as compared with control” value with linear wounds came out at 90.4. Besides, the “microscopic changes in the eye” value in the data set with eyes (large doses) is “lymphoid infiltrates were formed in the ciliary body, iris, and sometimes in the initial parts of the optic nerve, but these changes were reversible”. The “macroscopic local inflammatory reactions of the eyes” value in the data set with eyes (long-term administration) is recorded as “no macroscopic local inflammatory reactions of the eyes”. In addition, in data set [2], the “formation of the tumor necrosis factor” value is listed as “not to be conducive to the formation of the tumor necrosis factor”, the “functional activity of the B-cell immunity” value was “no effect on the functional activity of the B-cell immunity”, the “functional activity of the Te-cell immunity” value is on record as “not to inhibit the functional activity of the Te-cell immunity” and the specific leukocyte lysis result is recorded as “no specific leukocyte lysis”. In addition, the “specific reaction of leukocyte agglomeration” value in data set [2] is “no specific reaction of leukocyte agglomeration”. Further, the “allergenic and immunotoxic properties” value in [2] (overall) was “no allergenic and immunotoxic properties”. In addition, the solubility in chloroform entry in [3] (chloroform) is recorded as “practically insoluble”. In data set [3] (ethyl alcohol), the “solubility in ethyl alcohol” value is listed as “poorly soluble”. Moreover, the “solubility in ethyl ether” value in data set [3] (ethyl ether) is listed as “practically insoluble”. For the same molecule, the solubility in water result in [3] (water) is “poorly soluble”.

As for `Cc1cc(O)nc(O)n1` [known form, 2,4-dioxo-6-methyl-1,2,3,4-tetrahydropyrimidine], the “class of toxicity (acute toxicity)” value in “acute toxicity” was “slightly higher toxicity, although they belong to the same group”. For the same molecule, the “constant of the dissolution rate K” value in [1] was determined as 0.18 min⁻¹. Moreover, in the data set with plane multilayer wounds, the “Rate of healing at 7 days” value is listed as 57.5 ± 8.3%, the “Rate of healing at 10 days” value is recorded as 80.2 ± 2.0%, the “Rate of healing at 15 days” value turned out to be 90.2 ± 2.8% and the “Mean time of falling off of crusts” value is recorded as 9.6 ± 0.5 days. Also, in the data set on plane multilayer wounds, the “Mean time of healing” value was found to be 18.4 ± 1.6 days and the “Speeding up of healing” value is 23.3%. In the data set with wounds, the “concentration of solution at which significant (comparable) wound-healing effect was manifested” value is listed as 1 % by weight. Further, the “Strength of the scar” value in the data set with linear wounds (7 days) came out at 40.1 ± 5.0 g/mm^2. Besides, the “Increase of the scar strength as compared with control” value in the data set with linear wounds came out at 33.2. The solubility in chloroform entry in data set [4] (chloroform) is “insoluble”. Besides, in data set [4] (ether), the solubility in ether result is on record as “insoluble”. Also, the “solubility in ethyl alcohol” value in [4] (ethyl alcohol) is “poorly soluble”. The solubility in water result in [4] (water) is reported as “poorly soluble”.
